Like-named read-outs stand apart in the source and are kept apart here. Each block holds one compound with its values, some of them ahead of it.
Tests used:
panel of 24 kinase = assay: Radiometric protein kinase assay (33PanQinase), panel of 24 kinases; type: biochemical, human; settings: for inhibition in a panel of 24 kinase: at 10 μM
Text: (§1) All protein kinases were expressed in Sf9 insect cells as human recombinant GST-fusion proteins or His-tagged proteins by means of the baculovirus expression system. Kinases were purified by affinity chromatography using either GSH-agarose (Sigma) or Ni-NTH-agarose (Qiagen). The purity of each kinase was checked by SDS-PAGE/silver staining and the identity of each kinase was verified by western blot analysis with kinase specific antibodies or by mass spectroscopy.
A radiometric protein kinase assay (^33PanQinase® Activity Assay) was used for measuring the kinase activity of the 24 protein kinases.
(§2) The assay for all enzymes contained 60 mM HEPES-NaOH, pH 7.5, 3 mM MgCl2, 3 mM MnCl2, 3 μM Na-orthovanadate, 1.2 mM DTT, 50 μg/ml PEG20000, 1 μM [γ-^33P]-ATP (approx. 5×10^05 cpm per well).
(§3) The reaction cocktails were incubated at 30° C. for 80 minutes. The reaction was stopped with 50 μl of 2% (v/v) H3PO4, plates were aspirated and washed two times with 200 μl of 0.9% (w/v) NaCl or 200 μl H2O. Incorporation of ^33Pi was determined with a microplate scintillation counter (Microbeta Trilux, Wallac).
(§4) The median value of the counts in column 1 (n=8) of each assay plate was defined as “low control”. This value reflects unspecific binding of radioactivity to the plate in the absence of a protein kinase but in the presence of the substrate. The median value of the counts in column 7 of each assay plate (n=8) was taken as the “high control”, i.e. full activity in the absence of any inhibitor. The difference between high and low control was taken as 100% activity.
(§5) As part of the data evaluation the low control value from a particular plate was subtracted from the high control value as well as from all 80 “compound values” of the corresponding plate. The residual activity (in %) for each well of a particular plate was calculated by using the following formula: Res. Activity (%)=100×[(cpm of compound−low control)/(high control−low control)]

VEGF-R2 = molecular target: T1, VEGF-R2 (Homo sapiens, UniProt P35968); assay: Radiometric protein kinase assay, VEGF-R2; type: biochemical; settings: 1 μM ATP; read-out: Inhibitory activity (IC50:μM) VEGF-R2
T1 construct: host or cells: Sf9 insect cells (baculovirus)
T1 sequence (P35968 20-1356): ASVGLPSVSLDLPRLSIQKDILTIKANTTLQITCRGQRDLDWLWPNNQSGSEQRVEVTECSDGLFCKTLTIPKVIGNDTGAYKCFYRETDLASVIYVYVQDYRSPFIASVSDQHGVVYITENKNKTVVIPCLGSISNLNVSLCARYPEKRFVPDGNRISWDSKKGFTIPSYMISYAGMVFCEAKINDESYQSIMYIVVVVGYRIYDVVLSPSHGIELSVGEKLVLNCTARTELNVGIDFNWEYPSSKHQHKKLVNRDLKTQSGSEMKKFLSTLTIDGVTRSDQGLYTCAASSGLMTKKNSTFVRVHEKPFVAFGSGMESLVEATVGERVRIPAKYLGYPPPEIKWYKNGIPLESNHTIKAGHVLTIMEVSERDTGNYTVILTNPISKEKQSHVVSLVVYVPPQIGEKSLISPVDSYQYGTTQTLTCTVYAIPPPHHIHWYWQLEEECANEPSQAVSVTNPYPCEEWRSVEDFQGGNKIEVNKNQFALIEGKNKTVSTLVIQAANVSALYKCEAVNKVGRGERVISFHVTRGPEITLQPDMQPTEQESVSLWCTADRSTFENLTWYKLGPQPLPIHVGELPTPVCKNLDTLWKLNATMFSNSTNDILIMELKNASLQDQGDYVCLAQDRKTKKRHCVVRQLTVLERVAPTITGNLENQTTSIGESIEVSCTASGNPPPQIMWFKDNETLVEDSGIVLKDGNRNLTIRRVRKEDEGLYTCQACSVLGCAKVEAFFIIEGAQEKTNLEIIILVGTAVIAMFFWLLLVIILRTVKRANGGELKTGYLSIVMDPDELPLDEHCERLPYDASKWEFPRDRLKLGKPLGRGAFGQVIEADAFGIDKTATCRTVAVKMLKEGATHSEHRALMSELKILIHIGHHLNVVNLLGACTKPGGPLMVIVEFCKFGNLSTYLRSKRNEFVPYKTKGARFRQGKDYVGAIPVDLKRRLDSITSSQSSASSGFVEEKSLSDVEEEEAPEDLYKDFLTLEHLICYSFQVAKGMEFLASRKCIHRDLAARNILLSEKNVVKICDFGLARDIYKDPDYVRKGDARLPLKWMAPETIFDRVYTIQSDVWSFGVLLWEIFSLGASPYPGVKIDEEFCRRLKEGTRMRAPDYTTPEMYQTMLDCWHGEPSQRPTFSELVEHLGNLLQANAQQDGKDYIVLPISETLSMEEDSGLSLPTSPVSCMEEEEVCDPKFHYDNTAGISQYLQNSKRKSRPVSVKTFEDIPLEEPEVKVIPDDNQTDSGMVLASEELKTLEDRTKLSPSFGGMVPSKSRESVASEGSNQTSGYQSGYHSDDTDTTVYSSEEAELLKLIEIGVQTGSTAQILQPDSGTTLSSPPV
Text: as §1
A radiometric protein kinase assay (^33PanQinase® Activity Assay) was used for measuring the kinase activity of the 24 protein kinases. All kinase assays were performed in 96-well FlashPlates™ from Perkin Elmer (Boston, Mass., USA) in a 50 μl reaction volume. The reaction cocktail was pipetted in 4 steps in the following order: • 20 μl of assay buffer • 5 μl of ATP solution (in H2O) • 5 μl of test compound (in 10% DMSO) • 10 μl of substrate/10 […] of enzyme solution (premixed)
as §2
For the 24 kinase assays, the following amounts of enzyme and substrate were used per well:
as §3, §4, §5
The residual activities for each concentration and the compound IC50 values were calculated using Quattro Workflow V2.1.0.0 (Quattro Research GmbH, Munich, Germany; www.quattro-research.com). The model used was “Sigmoidal response (variable slope)” with parameters “top” fixed at 100% and “bottom” at 0%.

ErbB2 = assay: Degradation of HSP90 client protein ErbB2 in SK-BR3, Western blotting; type: cell-based; settings: Homo sapiens; for EC50: read-out: EC50, degradation of ErbB2
Text: Thus, after 18 hrs treatment with the compounds, the whole cell protein lysates were obtained, protein concentrations were normalized and the concentration of ErbB2 was quantified by Western blotting (C. Chavany et al J. Biol. Chem. 271:4974-4977 (1996)).

tumor xenograft models = settings: in vivo; cited from earlier work
[1] = cited from earlier work
HSP90 [2] = molecular target: T2, HSP90 (Homo sapiens, UniProt P07900); assay: HSP90 affinity, competition assay with geldanamycin; type: binding
HSP90 [3] = molecular target: T2, HSP90; settings: reported; read-out: inhibitor of HSP90; cited from earlier work
HCC1954 tumor cells = assay: Cytotoxicity, MTS assay, HCC1954; type: cell-based; settings: Homo sapiens, 72 hours
Experimental: (§6) Tumor cells were grown as adherent monolayers at 37° C. in a humidified atmosphere (5% CO2, 95% air). The culture medium was RPMI 1640 containing 2 mM L-glutamine (Ref BE12-702F, Cambrex, Verviers, Belgium) and supplemented with 10% fetal bovine serum (Ref DE14-801E, Cambrex). For experimental use, the adherent tumour cells were detached from the culture flask by a 5-minute treatment with trypsin-versene (Ref O2-007E, Cambrex), diluted in Hanks' medium without calcium or magnesium (Ref BE10-543F, Cambrex) and neutralized by addition of complete culture medium. Before use, cells were counted in a hemocytometer and their viability were assessed by 0.25% trypan blue exclusion. Mycoplasma detection was performed using the MycoAlert® Mycoplasma Detection Kit (Ref LT07-318, Cambrex) in accordance with the manufacturer instructions. The MycoAlert®Assay is a selective biochemical test that exploits the activity of mycoplasmal enzymes. The viable mycoplasma are lysed and the enzymes react with the MycoAlert® substrate catalyzing the conversion of ADP to ATP. By measuring the level of ATP in a sample both before and after the addition of the MycoAlert® substrate a ratio can be obtained which is indicative of the presence or absence of mycoplasma. The mycoplasma test was assayed in duplicate from the culture supernatants of the cell lines and compared to negative and positive controls (MycoAlert® Assay Control Set, Ref LT07-518, Cambrex) (Internal Standard Operating Procedure No TEC-007/002). Both HCC1954 and SK-BR-3 tumour cells (5,000 cells per well) were plated in 96-well flat-bottom microtitration plates (Ref 167008, Nunc, Dutscher, Brumath, France) and incubated at 37° C. for 24 hours before treatment in 190 μl of drug-free culture medium supplemented with 10% FBS. Both HCC1954 and SK-BR-3 tumour cell lines were incubated for 72 hours with […], in ¼ dilution steps, of the test substances (ranging from […]) to be tested as well as paclitaxel (ranging from 10^−7 to 10^−12 M). The cells (190 μl) will be incubated in a 200 μl final volume of culture medium supplemented with 10% FBS containing test substances at 37° C. under 5% CO2. One experiment is performed, each concentration being issued from quadruplicate. Control cells are treated with corresponding vehicle alone. At the end of treatments, the cytotoxic activity is evaluated by a MTS assay. […] Like MTT, MTS is bioreduced by cells into a formazan product that is directly soluble in culture medium without processing, unlike MTT.
(§7) At the end of the cells treatment, 40 μl of a 0.22 μm filtered freshly combined solution of MTS (20 ml at 2 mg/ml, Ref G1111A, Promega, Charbonnières, France) and PMS (1 ml at 0.92 mg/ml, Ref P9625, Sigma) in Dulbecco's Phosphate Buffered Saline (DPBS, Ref 17-513F, Cambrex), were added in each well. Culture plates were incubated for 2 h at 37° C. Absorbency (OD) will be measured at 490 nm in each well using VICTOR^3™ 1420 multilabeled counter (Wallac, PerkinElmer, Courtaboeuf, France).

SK-BR-3 tumor cells = assay: Cytotoxicity, MTS assay, SK-BR-3; type: cell-based; settings: Homo sapiens, 72 hours
Experimental: as §6, §7

HCC1954 cells = assay: Antitumor activity, HCC1954 induced tumors in CB17/SCID mice; type: in vivo
Experimental: The compounds of the invention were evaluated for antitumor activity in mice. Tumors were induced […] in healthy CB17/SCID mice by injecting HCC1954 cells into the right flank of 70 mice. Once the induced tumors were an average size of […], the mice were treated with compound a2-1 at 25 mg/kg, 50 mg/kg and 100 mg/kg. Controls of vehicle alone and Herceptin® at 10 mg/kg were utilized.

[4] = Maximum tolerated dose in healthy CB17/SCID mice; type: in vivo
Experimental: Three healthy CB17/SCID mice were treated with compound 2a-1 at 25 mg/kg, 50 mg/kg and 100 mg/kg once daily for five consecutive days.

HER-2 = HER-2 degradation assay; cited from earlier work

SMILES: C[C@@H]1C[C@H]2O[C@@H]2/C=C\C=C\C(=O)Cc2c(Cl)c(O)cc(O)c2C(=O)O1 [Radicicol, radicicol]
- IC50 in panel of 24 kinase assays (blank cells; summary in words) (panel of 24 kinase; a blank represents an IC50 > 50 μM): no inhibition
- inhibition in a panel of 24 kinase (panel of 24 kinase): no significant activity
- IC50 (VEGF-R2): 49 µM
- IC50 (ErbB2; SK-BR-3, 18 h, read-out: IC50, degradation of ErbB2): 0.289 µM
- activity in tumor xenograft models (tumor xenograft models): inactive
- water solubility [1]: poorly water-soluble

- IC50 (HSP90 [2]): 0.09 µM
- inhibition in a panel of 24 kinase (panel of 24 kinase): no significant activity
SMILES: C[C@@H]1CC2O[C@@H]2CC/C=C/C(=O)Cc2c(Cl)c(O)cc(O)c2C(=O)O1 (stereo partly shown) [pochonin A]
- IC50 (HSP90 [3]): 0.09 µM

SMILES: O=C1OCC/C=C/CC/C=C/C(=N/OCC(=O)N2CCCCC2)Cc2c(Cl)c(O)cc(O)c21 [2a-1]
- EC50 (HCC1954 tumor cells): 0.32 µM
- EC50 (SK-BR-3 tumor cells): 0.125 µM
- EC50 (ErbB2; SK-BR-3, SK-BR3, 18 hrs treatment, Western blotting): 0.026 µM
- tumor size (HCC1954 cells; 25 mg/kg, 50 mg/kg and 100 mg/kg): dose-dependent reduction in tumor size
- tumor size compared with Herceptin® at 10 mg/kg (HCC1954 cells; even at the 25 mg/kg dose for three weeks): superior to those obtained in mice treated with Herceptin®
- re-growth of tumor after the last treatment (HCC1954 cells; mouse, in vivo): did not occur for three to seven days
- weight loss ([4]; 25 mg/kg once daily for five consecutive days): did not show any weight loss
- body weight loss ([4]; 50 mg/kg once daily for five consecutive days): slight, but acceptable body weight loss
- body weight loss ([4]; 100 mg/kg once daily for five consecutive days): slight, but acceptable body weight loss

SMILES: CCCCn1c(Cc2cc(OC)c(OC)c(OC)c2)nc2c(N)ncnc21 [PU3]
- IC50 (HER-2): 40 µM

- EC50 (ErbB2; SK-BR-3, 18 h): 0.012 µM
SMILES: O=C1OCC/C=C/CC/C=C/C(=N/OCC(=O)N2CCCCC2)Cc2cc(O)cc(O)c21 [2a-13]
- EC50 (HCC1954 tumor cells): 0.22 µM
- EC50 (SK-BR-3 tumor cells): 0.12 µM
